Test results as given in patent US20250340739A1 ([…] SOLUTIONS, priority 2022, published 2025).
Like-named read-outs stand apart in the source and are kept apart here.

Conditions: solid state
[1] = amber glass, away from light, t = 1 month
[2] = amber glass, away from light, t = 2 months
[3] = amber glass, away from light, t = 6 months
[4] = amber type II glass, away from light, t0, % area HPLC 240 nm
[5] = amber glass, away from light, t = 5 month
[6] = amber glass, away from light, t = 4 months

Description: The elution is carried out by gradient. The mobile phase consists of ammonium formiate buffer 100 mM pH 4.5 (eluent A) and acetonitrile (eluent B). The composition of the mobile phase was modified continuously during the elution process according to the following Table II:

Compound | ICG purity (HPLC) [4] [%] | Total impurities (HPLC) [4] [%] | ICG purity (HPLC) (t = 8 weeks) [%] | Total impurities (HPLC) (t = 8 weeks) [%] | other results
CC1(C)C(/C=C/C=C/C=C/C=C2\N(CCCCS(=O)(=O)[O-])c3ccc4ccccc4c3C2(C)C)=[N+](CCCCS(=O)(=O)[O-])c2ccc3ccccc3c21.[Na+] [Example 2, Indocyanine green] | 99.21 | 0.79 | – | – | ICG purity (HPLC) [1]: 99.25%; Total impurities (HPLC) [1]: 0.75%; ICG purity (HPLC) [2]: 99.09%; Total impurities (HPLC) [2]: 0.91%; ICG purity (HPLC) [3]: 99.03%; Total impurities (HPLC) [3]: 0.97%
CC1(C)C(/C=C/C=C/C=C/C=C2\N(CCCCS(=O)(=O)[O-])c3ccc4ccccc4c3C2(C)C)=[N+](CCCCS(=O)(=O)[O-])c2ccc3ccccc3c21.[Na+] [Example 3, Indocyanine green] | 98.60 | 1.40 | – | – | ICG purity (HPLC) [1]: 98.39%; Total impurities (HPLC) [1]: 1.61%; ICG purity (HPLC) [5]: 97.95%; Total impurities (HPLC) [5]: 2.05%
CC1(C)C(/C=C/C=C/C=C/C=C2\N(CCCCS(=O)(=O)[O-])c3ccc4ccccc4c3C2(C)C)=[N+](CCCCS(=O)(=O)[O-])c2ccc3ccccc3c21.[Na+] [Example 4, Indocyanine green] | 95.98 | 4.02 | – | – | ICG purity (HPLC) [6]: 94.11%; Total impurities (HPLC) [6]: 5.89%
CC1(C)C(/C=C/C=C/C=C/C=C2\N(CCCCS(=O)(=O)[O-])c3ccc4ccccc4c3C2(C)C)=[N+](CCCCS(=O)(=O)[O-])c2ccc3ccccc3c21.[Na+] [NaBr, Indocyanine green] | 99.95 | 0.05 | – | – | ICG purity (HPLC) (t = 4 weeks): 99.84%; Total impurities (HPLC) (t = 4 weeks): 0.16%
CC1(C)C(/C=C/C=C/C=C/C=C2\N(CCCCS(=O)(=O)[O-])c3ccc4ccccc4c3C2(C)C)=[N+](CCCCS(=O)(=O)[O-])c2ccc3ccccc3c21.[Na+] [NaOAc, Indocyanine green] | 99.95 | 0.05 | 99.65 | 0.35 | –
CC1(C)C(/C=C/C=C/C=C/C=C2\N(CCCCS(=O)(=O)[O-])c3ccc4ccccc4c3C2(C)C)=[N+](CCCCS(=O)(=O)[O-])c2ccc3ccccc3c21.[Na+] [NaOAsc, Indocyanine green] | 99.95 | 0.05 | 99.72 | 0.28 | –
CC1(C)C(/C=C/C=C/C=C/C=C2\N(CCCCS(=O)(=O)[O-])c3ccc4ccccc4c3C2(C)C)=[N+](CCCCS(=O)(=O)[O-])c2ccc3ccccc3c21.[Na+] [NaOEt, Indocyanine green] | 99.58 | 0.42 | 99.34 | 0.66 | –
